These results are taken from US7498340B2, “Esters in position 20 of camptothecins” (priority 2002, dated 2009).

Structures can show the parent of a compound that is named as a salt.

As usually defined, the IC50 is the concentration needed to halve the response being measured.

The test system of the first data set is NCI-H460. The conditions noted are these: read-out: Cytotoxicity test on H460 cells: IC50; H460 cells; printed as 42 nM±6.
As to `CC[C@@]1(OC(=O)CCCBr)C(=O)OCc2c1cc1n(c2=O)Cc2c-1nc1ccccc1c2/C=N/OC(C)(C)C` [ST2599, (E)-7-tert-butoxyiminomethyl-20-O-(4-bromo)-butyryl-camptothecin], the concentration for half-maximal inhibition (IC50) stood at 42 nM.

Staying with this data set, now noted: read-out: NCI-H460 IC50; 2 h exposure, then 72 h recovery; concentration inhibiting 50% of cell survival; ALLFIT software.
For “7-ter-butoxyiminomethyl-20-O-(2-methoxy-phenyl-glycyl)succinyl-camptothecin [ST1617]”, the IC50 was 29 nM.
On the same count and under the same terms, in the case of “20-O-(2-methoxyphenylglycyl)succinyl-camptothecin [ST1454]” it was 160 nM; in that of “20-O-(benzylglycyl)succinyl-camptothecin [ST1451]”, 150 nM; in that of “20-O-(terbutylglycyl)succinyl-camptothecin bromide [ST1453]”, 260 nM.
The same measure, in the same setting: with `CC[C@@]1(OC(=O)CCC(=O)NCC(=O)O)C(=O)OCc2c1cc1n(c2=O)Cc2cc3ccccc3nc2-1` [ST1452, 20-O-(glycyl)succinyl-camptothecin] the figure was 1600 nM.
Same read-out and setting: in the case of `CC[C@@]1(OC(=O)CCC(=O)NCC(=O)OC(C)(C)C)C(=O)OCc2c1cc1n(c2=O)Cc2c-1nc1ccccc1c2C=NOC(C)(C)C` [ST1616, 7-ter-butoxyiminomethyl-20-O-(terbutylglycyl)succinyl-camptothecin] it was 4 nM.
With `CCC1(OC(=O)CCC(=O)NCCN(C)C)C(=O)OCc2c1cc1n(c2=O)Cc2c-1nc1ccccc1c2C=NOC(C)(C)C` (stereo not shown) [ST1657, (E)-7-tert-butoxyiminomethyl-20-O-[2-(dimethylamino)ethylamino]succinyl-camptothecin hydrochloride], the IC50 came out at 12 nM.
The same measure, in the same setting: with `CCC1(OC(=O)CCC[N+](C)(C)C)C(=O)OCc2c1cc1n(c2=O)Cc2c-1nc1ccccc1c2C=NOC(C)(C)C` (stereo not shown) [ST2200, (E)-7-tert-butoxyiminomethyl-20-O-(4-trimethylammonium)-butanoyl-camptothecin bromide] the figure was 17 nM.
Same read-out and setting: in the case of “(E)-7-tert-butoxyiminomethyl-20-O-(4-trimethyl-ammonium-3-hydroxy)butanoyl-camptothecin bromide [ST2204]” it was 41 nM.
